Test results: patent publication US20170240543A1, “CRYSTALLINE FORMS OF PALBOCICLIB” (Sun Pharmaceutical Industries Limited, priority 2014, published 2017)

How the values were obtained:
[1] = Specific surface area (Micromeritic Gemini VII 2390 Surface Analyzer); assay type: physicochemical
Procedure: Specific surface area was determined using a Micromeritic® Gemini® VII 2390 Surface Analyzer (Software: Gemini VII, version 1.03).

[2] = Filterability, electrostatic nature and flowability of the solid; assay type: physicochemical; details: no comparator stated

CC(=O)c1c(C)c2cnc(Nc3ccc(N4CCNCC4)cn3)nc2n(C2CCCC2)c1=O [Form V-A, 6-acetyl-8-cyclopentyl-5-methyl-2-[[5-(1-piperazinyl)-2-pyridinyl]amino]pyrido[2,3-d]pyrimidin-7(8H)-one]
specific surface area (SSA) [1]: greater than 2 m^2/g
filterability, electrostatic nature, and flowability [2]: improved
